Experimental data from PMC8634879, “Design, Synthesis, and Biological Evaluation of Pyrano[2,3-c]-pyrazole–Based RalA Inhibitors Against Hepatocellular Carcinoma” (Frontiers in Chemistry, 2021).
Like-named read-outs stand apart in the source and are kept apart here.

Legend:
[1] = molecular target: T1, RalA (Homo sapiens, UniProt P11233); assay: ELISA-based RalA activity assay (RalBP1-coated plates, lysates of compound-treated cells); format: biochemical; conditions: for remaining activity at 1 µM: 1 μM compound, % control = activity remained; for IC50: enzymatic inhibition, average of at least three independent replicates ± SD, read-out: Kinase activities (IC50, μM) RalA
T1 construct: expressed in transfected cells; host or cells: HepG2 (from b6; the methods paragraph names no cell line)
T1 sequence (P11233 1-203 limits assumed): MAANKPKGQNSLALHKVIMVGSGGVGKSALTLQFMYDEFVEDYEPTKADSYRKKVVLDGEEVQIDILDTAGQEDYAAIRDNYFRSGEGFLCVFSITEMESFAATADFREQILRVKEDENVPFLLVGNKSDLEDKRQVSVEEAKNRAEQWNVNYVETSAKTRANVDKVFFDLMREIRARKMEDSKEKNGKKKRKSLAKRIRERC
Procedure: (§1) The in vitro RalA/B bioactivity assays were performed following methods outlined in previous reports. ([Yan et al., 2016]; [Zhang et al., 2018]; [Walsh et al., 2019]; [Bum-Erdene et al., 2020]). In brief, the lysates of the test compound or vehicle-treated cells were cleared using cold centrifugation, and supernatants were collected. An RalBP1 solution was added to 96-well plates and incubated for 1–2 h, and then the plates were washed thrice using ELISA buffer. Next, cellular lysates were added, and samples were incubated overnight at 4°C. Then, ice-cold mouse anti-FLAG antibody was added, and samples were incubated for one more hour. After subsequent washing with ELISA buffer thrice, the HRP-conjugated anti-mouse antibody was added, and samples were incubated for another hour. Then, the HRP substrate was added. Antigen–antibody reactions were quenched by the addition of sulfuric acid (2 mol/L). Remaining RalA/B was detected by the OD450 values which were collected by using a plate reader. Cell proliferation assays, colony formation assays, apoptosis assays, GST pulldown, and Western blotting were used following methods outlined in our previous reports. ([Zhou et al., 2015]; [Zhang et al., 2016]; [Yang et al., 2017]; [He et al., 2019]). Autophagy levels and protein immunoblotting were used following the methods mentioned in our previous reports ([Pan et al., 2018]; [Wang et al., 2018]; [Hao et al., 2019]; [Wang et al., 2019]; [Peng et al., 2020]). Detailed experimental procedures are described in supporting materials.

[2] = molecular target: T2, RalB (Homo sapiens, UniProt P11234); assay: ELISA-based RalB activity assay (RalBP1-coated plates, lysates of compound-treated cells); format: biochemical; conditions: for remaining activity at 1 µM: 1 μM compound, % control = active (RalBP1-bound) RalB remaining; for IC50: enzymatic inhibition, average of at least three independent replicates ± SD, read-out: Kinase activities (IC50, μM) RalB
T2 construct: expressed in transfected cells; host or cells: HepG2 (from b6; the methods paragraph names no cell line)
T2 sequence (P11234 1-203 limits assumed): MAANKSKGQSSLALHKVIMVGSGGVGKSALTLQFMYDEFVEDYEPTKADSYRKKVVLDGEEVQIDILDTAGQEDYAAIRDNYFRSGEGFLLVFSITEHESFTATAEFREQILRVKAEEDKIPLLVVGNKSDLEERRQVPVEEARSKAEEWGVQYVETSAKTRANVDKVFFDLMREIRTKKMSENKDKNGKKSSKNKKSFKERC
Procedure: as §1

[3] = tested on: HepG2 cells; assay: Cell proliferation assay (MTT), HepG2; format: cell-based; conditions: Homo sapiens
Procedure: (§2) The antibodies recognizing LC3, p62/SQSTM1, RalA, RalB, and GAPDH were purchased from Proteintech (Wuhan, China). HCC cell lines, including HepG2, Hep3B, Huh-7, and SMMC-7721, were obtained from the Chinese Center for Type Culture Collection (Wuhan, China) and cultured in DMEM (Dulbecco’s modified Eagle’s medium) with 10% FBS (fetal bovine serum) and streptomycin. Cytotoxicity assays were performed by using the MTT method as previously described.
as §1

[4] = tested on: Huh-7 cells; assay: Cell proliferation assay (MTT), Huh-7; format: cell-based; conditions: Homo sapiens
Procedure: as §2, §1

[5] = tested on: Hep3B cells; assay: Cell proliferation assay (MTT), Hep3B; format: cell-based; conditions: Homo sapiens, average of at least three independent replicates ± SD, read-out: Anti-proliferative activities (IC50, μM) Hep3B
Procedure: as §2, §1

[6] = tested on: SMMC-7721 cells; assay: Cell proliferation assay (MTT), SMMC-7721; format: cell-based; conditions: Homo sapiens, average of at least three independent replicates ± SD, read-out: Anti-proliferative activities (IC50, μM) SMMC-7721
Procedure: as §2, §1

[7] = HepG2, Table 1, cell proliferation inhibition, read-out: IC50 (μM) HepG2
[8] = Table 1, cell proliferation inhibition, read-out: IC50 (μM) Huh7
[9] = HepG2, Table 2, average of at least three independent replicates ± SD, read-out: Anti-proliferative activities (IC50, μM) HepG2
[10] = Table 2, average of at least three independent replicates ± SD, read-out: Anti-proliferative activities (IC50, μM) Huh-7

| Compound | remaining activity at 1 µM [1] [%] | remaining activity at 1 µM [2] [%] | IC50 [3, 7] [µM] | IC50 [4, 8] [µM] | melting point [°C] | IC50 [1] [µM] | IC50 [2] [µM] | IC50 [3, 9] [µM] | IC50 [4, 10] [µM] | IC50 [5] [µM] | IC50 [6] [µM] |
| --- | --- | --- | --- | --- | --- | --- | --- | --- | --- | --- | --- |
| Cc1ccc(S(=O)(=O)NC2=C(C#N)C(c3ccco3)c3c(C)nn(-c4ccccc4)c3O2)cc1 (stereo not drawn) [4j, N-(5-cyano-4-(furan-2-yl)-3-methyl-1-phenyl-1,4-dihydropyrano[2,3-c]-pyrazol-6-yl)-4-methylbenzenesulfonamide] | 57 | 70 | 9.57 ± 1.05 | 9.94 ± 1.23 | 153.8 to 154.3 |  |  |  |  |  |  |
| Cc1ccc(S(=O)(=O)NC2=C(C#N)C(c3cccnc3)c3c(C)nn(-c4ccccc4)c3O2)cc1 (stereo not drawn) [4k, N-(5-cyano-3-methyl-1-phenyl-4-(pyridin-3-yl)-1,4-dihydropyrano[2,3-c]-pyrazol-6-yl)-4-methylbenzenesulfonamide] | 32 | 38 | 5.63 ± 0.58 | 6.01 ± 0.57 |  | 0.75 ± 0.09 | 1.09 ± 0.13 | 5.63 ± 0.58 | 6.01 ± 0.57 | > 10 | > 10 |
| Cc1ccc(S(=O)(=O)NC2=C(C#N)C(c3ccncc3)c3c(C)nn(-c4ccccc4)c3O2)cc1 (stereo not drawn) [4l, N-(5-cyano-3-methyl-1-phenyl-4-(pyridin-4-yl)-1,4-dihydropyrano[2,3-c]-pyrazol-6-yl)-4-methylbenzenesulfonamide] | 40 | 52 | 9.2 ± 0.89 | 9.15 ± 1.04 | 100.5 to 101.1 | 1.24 ± 0.15 | 2.64 ± 0.3 | 6.01 | 9.15 ± 1.04 | 4.39 ± 0.57 | 5.94 ± 0.77 |
| Cc1ccc(S(=O)(=O)NC2=C(C#N)C(c3ccco3)c3c(C)nn(-c4ccccc4Cl)c3O2)cc1 (stereo not drawn) [4s, N-(1-(2-chlorophenyl)-5-cyano-4-(furan-2-yl)-3-methyl-1,4-dihydropyrano[2,3-c]-pyrazol-6-yl)-4-methylbenzenesulfonamide] | 48 | 72 | 9.89 ± 0.81 | > 10 | 62.5 to 63.9 |  |  |  |  |  |  |
| Cc1ccc(S(=O)(=O)NC2=C(C#N)C(c3ccncc3)c3c(C)nn(-c4ccccc4Cl)c3O2)cc1 (stereo not drawn) [4u, N-(1-(2-chlorophenyl)-5-cyano-3-methyl-4-(pyridin-4-yl)-1,4-dihydropyrano[2,3-c]-pyrazol-6-yl)-4-methylbenzenesulfonamide] | 44 | 50 | 8.71 ± 0.74 | > 10 | 79 to 80 |  |  |  |  |  |  |
| Cc1ccc(S(=O)(=O)NC2=C(C#N)C(c3ccsc3)c3c(C)nn(-c4ccccc4Cl)c3O2)cc1 (stereo not drawn) [4v, N-(1-(2-chlorophenyl)-5-cyano-3-methyl-4-(thiophen-3-yl)-1,4-dihydropyrano[2,3-c]-pyrazol-6-yl)-4-methylbenzenesulfonamide] | 56 | 78 | > 10 | > 10 | 67.4 to 68.8 |  |  |  |  |  |  |
| COc1cccc(C2C(C#N)=C(NS(=O)(=O)c3ccc(C)cc3)Oc3c2c(C)nn3-c2ccccc2Cl)c1 (stereo not drawn) [4w, N-(1-(2-chlorophenyl)-5-cyano-4-(3-methoxyphenyl)-3-methyl-1,4-dihydropyrano[2,3-c]-pyrazol-6-yl)-4-methylbenzenesulfonamide] | 51 | 69 | 8.87 ± 0.95 | > 10 | 66.4 to 67.7 |  |  |  |  |  |  |
| COc1cccc(C2C(C#N)=C(NS(=O)(=O)c3ccccc3)Oc3c2c(C)nn3-c2ccccc2Cl)c1 (stereo not drawn) [4x, N-(1-(2-chlorophenyl)-5-cyano-4-(3-methoxyphenyl)-3-methyl-1,4-dihydropyrano[2,3-c]-pyrazol-6-yl)benzenesulfonamide] | 59 | 58 | > 10 | 8.93 ± 1.02 | 66 to 67.5 |  |  |  |  |  |  |
